Data from EPA's ToxRefDB 2.

Key:
[1] = system: rat; details: Sub-acute repeat dose toxicity; sprague dawley; Oral; Gavage/Intubation; dose end: 29 day; group: systemic; systemic / in life observation / clinical signs / salivation
[2] = system: rat; details: Fertility (Segment I), Oral, Gavage/Intubation, dose end: 1 generation, group: parental
[3] = system: rabbit; details: Sub-acute repeat dose toxicity, Oral, Gavage/Intubation, dose end: 5 day, group: systemic
[4] = system: rat; details: Prenatal developmental toxicity study, sprague dawley, Oral, Gavage/Intubation, dose end: 18 GD
[5] = system: rat; details: Sub-acute repeat dose toxicity, sprague dawley, Oral, Gavage/Intubation, dose end: 14 day, group: systemic
[6] = system: primate; details: Sub-acute repeat dose toxicity, Oral, Gavage/Intubation, dose end: 28 day, group: systemic
[7] = system: rat; details: Chronic toxicity, sprague dawley, Oral, Gavage/Intubation, dose end: 180 day, group: systemic
[8] = system: rat; details: Fertility (Segment I), Oral, Gavage/Intubation, dose end: 1 generation, group: parental; remark: listed apart in the source
[9] = system: primate; details: Sub-acute repeat dose toxicity, Oral, Gavage/Intubation, dose end: 10 day, group: systemic
[10] = system: rabbit; details: Prenatal developmental toxicity study, new zealand white, Oral, Gavage/Intubation, dose end: 19 GD
[11] = system: rabbit; details: Prenatal developmental toxicity study; Oral; Gavage/Intubation; dose end: 19 GD; group: maternal; reproductive / reproductive performance / aborted / aborted + systemic / in life observation / food consumption / food consumption + …
[12] = system: rat; details: Fertility (Segment I), Oral, Gavage/Intubation, dose end: 1 generation
[13] = system: rat; details: Fertility (Segment I), Oral, Gavage/Intubation, dose end: 1 generation, group: parental; remark: listed apart in the source
[14] = system: rabbit; details: Sub-acute repeat dose toxicity, Oral, Gavage/Intubation, dose end: 13 day
[15] = system: rat; details: Prenatal developmental toxicity study; sprague dawley; Oral; Gavage/Intubation; dose end: 18 GD; group: maternal; systemic / in life observation / body weight / body weight gain + systemic / in life observation / food consumption / food consumption
[16] = systemic / in life observation / clinical signs / fur (altered appearance) + systemic / in life observation / clinical signs / salivation
[17] = systemic / in life observation / clinical signs / salivation
[18] = systemic / in life observation / body weight / body weight + systemic / in life observation / clinical signs / abnormal feces + systemic / …
[19] = group: developmental, developmental / developmental malformation / bone / delayed ossification + systemic / in life observation / body weight / fetal weight
[20] = group: maternal, systemic / in life observation / clinical signs / salivation
[21] = group: maternal, systemic / in life observation / clinical signs / salivation + systemic / in life observation / body weight / body weight gain
[22] = systemic / in life observation / body weight / body weight gain + systemic / in life observation / clinical signs / dehydration + systemic…
[23] = systemic / clinical chemistry / [other] / [other] + systemic / in life observation / clinical signs / abnormal feces + systemic / in life …
[24] = systemic / clinical chemistry / 5' nucleotidase / 5' nucleotidase + systemic / clinical chemistry / alanine aminotransferase (alt/sgpt) / …
[25] = systemic / in life observation / body weight / body weight gain + systemic / in life observation / food consumption / food consumption
[26] = systemic / in life observation / clinical signs / abnormal respiratory sounds + systemic / in life observation / clinical signs / fur (…
[27] = systemic / in life observation / clinical signs / abnormal feces + systemic / in life observation / clinical signs / salivation
[28] = systemic / in life observation / clinical signs / abnormal feces + systemic / in life observation / clinical signs / salivation + systemic…
[29] = group: developmental, systemic / in life observation / body weight / fetal weight
[30] = group: maternal, systemic / in life observation / body weight / body weight + systemic / in life observation / body weight / body weight gain + systemic / in…
[31] = group: maternal, reproductive / reproductive performance / estrous cycle / abnormal
[32] = group: parental, systemic / in life observation / food consumption / food consumption
[33] = systemic / in life observation / body weight / body weight + systemic / in life observation / food consumption / food consumption + systemic…
[34] = group: maternal, reproductive / reproductive performance / aborted / aborted + reproductive / reproductive performance / resorptions / resorptions
[35] = group: systemic, systemic / in life observation / body weight / body weight gain + systemic / in life observation / food consumption / food consumption

CC(C)(O)c1coc(S(=O)(=O)NC(=O)Nc2c3c(cc4c2CCC4)CCC3)c1
LEL [1]: 100 mg/kg/day | LOAEL [1]: > 500 mg/kg/day | NEL [1]: 10 mg/kg/day | NOAEL [1]: ≥ 500 mg/kg/day | LOAEL [2, 16]: > 500 mg/kg/day | NOAEL [2, 16]: ≥ 500 mg/kg/day | LEL [2, 17]: 25 mg/kg/day | NEL [2, 17]: < 25 mg/kg/day | LOAEL [3, 18]: > 500 mg/kg/day | NEL [3, 18]: 50 mg/kg/day | NOAEL [3, 18]: ≥ 500 mg/kg/day | LEL ([3]; systemic / in life observation / food consumption / food consumption): 250 mg/kg/day | LEL [4, 19]: 500 mg/kg/day | LOAEL [4, 19]: > 500 mg/kg/day | NOAEL [4, 19]: ≥ 500 mg/kg/day | LEL [4, 20]: 50 mg/kg/day | NEL [4, 20]: < 50 mg/kg/day | LOAEL [4, 21]: > 500 mg/kg/day | NOAEL [4, 21]: ≥ 500 mg/kg/day | LOAEL [5, 22]: > 1000 mg/kg/day | NOAEL [5, 22]: ≥ 1000 mg/kg/day | LEL [5, 17]: 100 mg/kg/day | NEL [5, 17]: < 100 mg/kg/day | LOAEL [6, 23]: > 200 mg/kg/day | NEL [6, 23]: 2 mg/kg/day | NOAEL [6, 23]: ≥ 200 mg/kg/day | LEL ([6]; systemic / in life observation / clinical signs / abnormal feces): 50 mg/kg/day | LOAEL [7, 24]: > 500 mg/kg/day | NOAEL [7, 24]: ≥ 500 mg/kg/day | LEL [7, 25]: 25 mg/kg/day | NEL [7, 25]: < 25 mg/kg/day | LOAEL [8, 26]: > 500 mg/kg/day | NOAEL [8, 26]: ≥ 500 mg/kg/day | LEL [8, 17]: 25 mg/kg/day | NEL [8, 17]: < 25 mg/kg/day | LEL [9, 27]: 10 mg/kg/day | NEL [9, 27]: < 10 mg/kg/day | LOAEL [9, 28]: > 200 mg/kg/day | NOAEL [9, 28]: ≥ 200 mg/kg/day | LEL [10, 29]: 250 mg/kg/day | LOAEL [10, 29]: > 250 mg/kg/day | NOAEL [10, 29]: ≥ 250 mg/kg/day | LEL [10, 30]: 250 mg/kg/day | LOAEL [10, 30]: > 250 mg/kg/day | NEL [10, 30]: 100 mg/kg/day | NOAEL [10, 30]: ≥ 250 mg/kg/day

CNCc1ccc(NC(=O)c2c[nH]c3c2C(=O)CCC3)cc1
LEL [11]: 300 mg/kg/day | LOAEL [11]: > 300 mg/kg/day | NEL [11]: 100 mg/kg/day | NOAEL [11]: ≥ 300 mg/kg/day | LEL [12, 31]: 250 mg/kg/day | LOAEL [12, 31]: > 1000 mg/kg/day | NEL [12, 31]: 25 mg/kg/day | NOAEL [12, 31]: ≥ 1000 mg/kg/day | LEL [12, 32]: 1000 mg/kg/day | LOAEL [12, 32]: > 1000 mg/kg/day | NEL [12, 32]: 250 mg/kg/day | NOAEL [12, 32]: ≥ 1000 mg/kg/day | LOAEL [13, 33]: > 1000 mg/kg/day | NEL [13, 33]: 25 mg/kg/day | NOAEL [13, 33]: ≥ 1000 mg/kg/day | LEL ([13]; systemic / in life observation / body weight / body weight + systemic / pathology gross / intestine large / dilatation): 250 mg/kg/day | LEL [14, 34]: 300 mg/kg/day | LOAEL [14, 34]: > 300 mg/kg/day | NEL [14, 34]: 150 mg/kg/day | NOAEL [14, 34]: ≥ 300 mg/kg/day | LEL [14, 35]: 300 mg/kg/day | LOAEL [14, 35]: > 300 mg/kg/day | NEL [14, 35]: 150 mg/kg/day | NOAEL [14, 35]: ≥ 300 mg/kg/day | LEL [15]: 250 mg/kg/day | LOAEL [15]: > 1000 mg/kg/day | NEL [15]: 25 mg/kg/day | NOAEL [15]: ≥ 1000 mg/kg/day
